Reference: ChEMBL document CHEMBL5500327, “Targeting insulin-like growth factor 2 mRNA-binding proteins (IGF2BPs) for the treatment of cancer” (Eur J Med Chem, 2024)

Columns and labels:
[1] = system: NCI-H1299; experiment: Antiproliferative activity against human NCI-H1299 cells assessed as reduction in cell growth incubated for 24 hrs by MTT assay; details: NCI-H1299, 24 h
[2] = target: T1, Insulin-like growth factor 2 mRNA-binding protein 1 (Homo sapiens, UniProt Q9NZI8); experiment: Binding affinity to IGF2BP1 (unknown origin) assessed as dissociation constant by MST assay
T1 sequence (Q9NZI8 whole entry): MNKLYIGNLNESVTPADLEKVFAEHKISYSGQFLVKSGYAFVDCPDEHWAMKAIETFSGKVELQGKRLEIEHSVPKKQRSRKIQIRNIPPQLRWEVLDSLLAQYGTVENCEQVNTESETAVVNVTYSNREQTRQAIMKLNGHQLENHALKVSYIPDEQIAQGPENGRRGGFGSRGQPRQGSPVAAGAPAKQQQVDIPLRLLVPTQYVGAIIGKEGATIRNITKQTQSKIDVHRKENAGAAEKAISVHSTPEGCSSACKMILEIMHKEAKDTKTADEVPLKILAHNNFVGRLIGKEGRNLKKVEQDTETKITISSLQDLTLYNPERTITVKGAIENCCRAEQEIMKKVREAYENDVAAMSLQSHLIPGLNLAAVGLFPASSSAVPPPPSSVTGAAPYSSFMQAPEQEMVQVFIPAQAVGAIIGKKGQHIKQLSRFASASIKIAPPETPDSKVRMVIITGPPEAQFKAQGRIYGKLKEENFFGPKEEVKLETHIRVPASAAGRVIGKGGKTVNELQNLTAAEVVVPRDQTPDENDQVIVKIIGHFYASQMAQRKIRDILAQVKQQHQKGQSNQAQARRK

[3] = target: T1, Insulin-like growth factor 2 mRNA-binding protein 1; experiment: Inhibition of full length recombinant IGF2BP1 (unknown origin) by fluorescence polarization assay
[4] = target: Insulin-like growth factor 2 mRNA-binding protein 2 (Homo sapiens, UniProt Q9Y6M1); experiment: Binding affinity to Histidine-tagged IMP-2 (unknown origin) assessed as dissociation constant by fluorescence polarization assay
Chain of Insulin-like growth factor 2 mRNA-binding protein 2 (Q9Y6M1 whole entry): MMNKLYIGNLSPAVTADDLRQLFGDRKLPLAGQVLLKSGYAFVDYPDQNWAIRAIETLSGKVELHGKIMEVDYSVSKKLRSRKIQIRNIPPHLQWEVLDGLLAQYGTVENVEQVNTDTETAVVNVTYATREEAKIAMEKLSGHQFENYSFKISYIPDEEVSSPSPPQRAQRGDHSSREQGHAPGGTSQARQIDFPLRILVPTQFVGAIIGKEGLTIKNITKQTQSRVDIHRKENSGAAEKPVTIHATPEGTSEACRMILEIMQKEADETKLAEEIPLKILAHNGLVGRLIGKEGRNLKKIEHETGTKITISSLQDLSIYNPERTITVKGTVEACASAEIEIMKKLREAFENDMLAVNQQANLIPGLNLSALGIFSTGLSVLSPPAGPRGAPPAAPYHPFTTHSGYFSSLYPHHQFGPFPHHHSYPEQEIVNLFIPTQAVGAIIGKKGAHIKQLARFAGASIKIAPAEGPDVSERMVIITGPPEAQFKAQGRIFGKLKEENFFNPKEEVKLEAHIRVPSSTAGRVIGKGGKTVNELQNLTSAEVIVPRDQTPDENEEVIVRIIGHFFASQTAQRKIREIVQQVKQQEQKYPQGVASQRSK

[5] = Cytotoxicity against human Huh-7 cells assessed as reduction in cell viability incubated for 24 hrs by MTT assay
[6] = target: T1, Insulin-like growth factor 2 mRNA-binding protein 1; experiment: Binding affinity to human recombinant IGF2BP1 assessed as dissociation constant by SPR analysis
[7] = system: THP-1; experiment: Antiproliferative activity against human THP-1 cells assessed as reduction in cell growth incubated for 24 hrs by MTT assay; details: THP-1, 24 h
[8] = Inhibition of full length IMP-1 (unknown origin) binding to fluorescein labeled 93 nucleotide c-Myc mRNA expressed in Escherichia coli BL21 (DE3) pLysS by FAMA method
[9] = system: HL-60; experiment: Antiproliferative activity against human HL-60 cells assessed as reduction in cell viability incubated for 24 hrs by MTT assay; details: HL-60, 24 h
[10] = system: K562; experiment: Antiproliferative activity against human K562 cells assessed as reduction in cell viability incubated for 24 hrs by MTT assay; details: K562, 24 h

O=C(c1ccc(Cn2cc(CO)c3ccccc32)cc1)N1CCN(c2ccc3c(c2)OCO3)CC1
IC50 [1]: 0.8 µM | Kd [2]: 1.4 µM

O=C(c1ccc(-n2cnnn2)cc1)N1CCCC(Nc2ccc3c(c2)OCO3)C1 (configuration not stated)
IC50 [3]: 91.1 µM

O=C(Nc1ccc(OC(F)(F)F)cc1C(=O)O)c1ccc(-c2ccccc2)cc1
IC50 [4]: 81.3 µM

CC(=O)OC(C)(C)/C=C/C(=O)[C@](C)(O)[C@H]1[C@H](O)C[C@@]2(C)[C@@H]3CC=C4[C@@H](C[C@H](O)C(=O)C4(C)C)[C@]3(C)C(=O)C[C@]12C
IC50 at 24 h [5]: 4.1 µM | Kd [6]: 1.2 µM

CCCN(CCc1ccccc1)C(=O)Nc1cc(-c2ccc(Cl)c(Cl)c2)sc1C(=O)O
IC50 [4]: 65.3 µM

Oc1ccc(Cl)cc1/C=N\N/C(=N/N=C/c1cc(Cl)ccc1O)N/N=C/c1cc(Cl)ccc1O
IC50 [7]: 0.2 µM

CCN(Cc1ccccc1)C(=O)Nc1cc(-c2ccc(C(F)(F)F)cc2)sc1C(=O)O
IC50 [4]: 121 µM

NC(=O)c1ccccc1/N=C/c1ccc(Br)s1
IC50 [8]: 5 µM | IC50 [9]: 21.6 µM | IC50 [10]: 6.76 µM
